From PubChem BioAssay AID192 (DTP/NCI, 2004)
Several values for one entry are separate records, joined by “and”; a condition that tells them apart may be missing. Equal values may be shown once. Toxic doses and inconclusive results are not listed. Rule for the calls: active = survival T/C of 150% or more; inactive = T/C below 125% in these data.

Tested on: BDF1 mice, B16 melanoma ip, median survival T/C
Experiment: NCI In Vivo Anticancer Drug Screen. Data for tumor model B16 Melanoma (intraperitoneal) in B6D2F1 (BDF1) mice
Details: endpoint: median survival time, higher = longer survival
Procedure, shortened: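 Vehicle-treated animals serve as the reference (C); treated animals (T) are scored for survival or tumor size after tumor transplantation.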

[1] = dose: 50.0 mg/kg/injection, schedule: Q01DX009 (ip), vehicle: saline with Tween-80
[2] = dose: 100.0 mg/kg/injection, schedule: Q01DX009 (ip), vehicle: saline with Tween-80
[3] = dose: 200.0 mg/kg/injection, schedule: Q01DX009 (ip), vehicle: saline with Tween-80
[4] = dose: 50.0 mg/kg/injection, schedule: Q01DX009 (ip), vehicle: Klucel (hydroxypropylcellulose) (HPC)
[5] = dose: 100.0 mg/kg/injection, schedule: Q01DX009 (ip), vehicle: Klucel (hydroxypropylcellulose) (HPC)
[6] = dose: 12.5 mg/kg/injection, schedule: Q01DX009 (ip), vehicle: Klucel (hydroxypropylcellulose) (HPC)
[7] = dose: 25.0 mg/kg/injection, schedule: Q01DX009 (ip), vehicle: Klucel (hydroxypropylcellulose) (HPC)
[8] = dose: 12.5 mg/kg/injection, schedule: Q01DX009 (ip), vehicle: saline
[9] = dose: 25.0 mg/kg/injection, schedule: Q01DX009 (ip), vehicle: saline
[10] = dose: 50.0 mg/kg/injection, schedule: Q01DX009 (ip), vehicle: saline

Measured: T/C

CC1=C(C)C(=O)O[C@@H]([C@](C)(O)[C@]2(O)CC[C@@]3(O)[C@@H]4C[C@H]5O[C@]56[C@@H](O)C=CC(=O)[C@]6(C)[C@H]4CC[C@]23C)C1
inactive: dose: 2.0 mg/kg/injection, schedule: Q01DX005 (ip), vehicle: saline + alcohol 117 % of control | dose: 2.0 mg/kg/injection, schedule: Q01DX005 (iv), vehicle: saline + alcohol 99 % of control | dose: 4.0 mg/kg/injection, schedule: Q01DX001 (ip), vehicle: saline + alcohol 113 % of control | dose: 4.0 mg/kg/injection, schedule: Q01DX001 (iv), vehicle: saline + alcohol 103 % of control | dose: 4.0 mg/kg/injection, schedule: Q01DX005 (iv), vehicle: saline + alcohol 97 % of control | dose: 4.0 mg/kg/injection, schedule: Q01DX005 (oral), vehicle: saline + alcohol 103 % of control | dose: 4.0 mg/kg/injection, schedule: Q01DX009 (oral), vehicle: saline + alcohol 90 % of control | dose: 8.0 mg/kg/injection, schedule: Q01DX001 (ip), vehicle: saline + alcohol 113 % of control | dose: 8.0 mg/kg/injection, schedule: Q01DX001 (iv), vehicle: saline + alcohol 114 % of control | dose: 8.0 mg/kg/injection, schedule: Q01DX001 (oral), vehicle: saline + alcohol 97 % of control | dose: 8.0 mg/kg/injection, schedule: Q01DX005 (iv), vehicle: saline + alcohol 95 % of control | dose: 8.0 mg/kg/injection, schedule: Q01DX005 (oral), vehicle: saline + alcohol 103 % of control | dose: 8.0 mg/kg/injection, schedule: Q01DX009 (oral), vehicle: saline + alcohol 95 % of control | dose: 16.0 mg/kg/injection, schedule: Q01DX001 (iv), vehicle: saline + alcohol 92 % of control | dose: 16.0 mg/kg/injection, schedule: Q01DX001 (oral), vehicle: saline + alcohol 99 % of control | dose: 16.0 mg/kg/injection, schedule: Q01DX005 (ip), vehicle: saline + alcohol 116 % of control | dose: 16.0 mg/kg/injection, schedule: Q01DX005 (iv), vehicle: saline + alcohol 92 % of control | dose: 16.0 mg/kg/injection, schedule: Q01DX005 (oral), vehicle: saline + alcohol 104 % of control | dose: 16.0 mg/kg/injection, schedule: Q01DX009 (oral), vehicle: saline + alcohol 94 % of control | dose: 32.0 mg/kg/injection, schedule: Q01DX001 (ip), vehicle: saline + alcohol 116 % of control | dose: 32.0 mg/kg/injection, schedule: Q01DX001 (iv), vehicle: saline + alcohol 101 % of control | dose: 32.0 mg/kg/injection, schedule: Q01DX001 (oral), vehicle: saline + alcohol 103 % of control | dose: 32.0 mg/kg/injection, schedule: Q01DX005 (iv), vehicle: saline + alcohol 99 % of control | dose: 32.0 mg/kg/injection, schedule: Q01DX005 (oral), vehicle: saline + alcohol 90 % of control | dose: 32.0 mg/kg/injection, schedule: Q01DX009 (oral), vehicle: saline + alcohol 104 % of control | dose: 64.0 mg/kg/injection, schedule: Q01DX001 (iv), vehicle: saline + alcohol 105 % of control | dose: 64.0 mg/kg/injection, schedule: Q01DX001 (oral), vehicle: saline + alcohol 101 % of control | dose: 64.0 mg/kg/injection, schedule: Q01DX005 (oral), vehicle: saline + alcohol 97 % of control | dose: 64.0 mg/kg/injection, schedule: Q01DX009 (oral), vehicle: saline + alcohol 101 % of control | dose: 128.0 mg/kg/injection, schedule: Q01DX001 (oral), vehicle: saline + alcohol 105 % of control

COC(=O)c1cc(C)ccc1O
inactive: [1] 108 % of control | [2] 97 % of control | [3] 105 % of control

O=C(O)COc1ccc(OCC(=O)O)cc1
inactive: dose: 0.75 mg/kg/injection, schedule: Q01DX009 (ip), vehicle: Klucel (hydroxypropylcellulose) (HPC) 89 % of control | dose: 1.5 mg/kg/injection, schedule: Q01DX009 (ip), vehicle: Klucel (hydroxypropylcellulose) (HPC) 89 % of control

ClC1CC[N-]CC1.ClC1CC[N-]CC1.O=C(O)CC(=O)O.[Pt+2]
inactive: dose: 12.5 mg/kg/injection, schedule: Q01DX009 (ip), vehicle: saline with Tween-80 96 % of control | dose: 25.0 mg/kg/injection, schedule: Q01DX009 (ip), vehicle: saline with Tween-80 95 % of control | [1] 96 % of control | [2] 95 % of control | [3] 104 % of control

Nc1ncnc2c1ncn2Cc1ccccc1
inactive: [4] 89 % of control and 90 % of control | [5] 90 % of control and 100 % of control | dose: 200.0 mg/kg/injection, schedule: Q01DX009 (ip), vehicle: Klucel (hydroxypropylcellulose) (HPC) 86 % of control

ClCCCCCCCCCCc1ccccc1
inactive: [6] 90 % of control | [7] 90 % of control | [4] 89 % of control

COC(=O)c1ccccc1NC(c1ccccn1)c1ccc2cccnc2c1O (stereo unspecified)
inactive: [7] 94 % of control | [4] 108 % of control | [5] 98 % of control

CN(C)CC(CN1c2ccccc2Sc2ccccc21)N(C)C (stereo unspecified)
inactive: dose: 3.12 mg/kg/injection, schedule: Q01DX009 (ip), vehicle: saline 102 % of control | dose: 6.25 mg/kg/injection, schedule: Q01DX009 (ip), vehicle: saline 107 % of control | [8] 107 % of control | [9] 120 % of control | [10] 105 % of control

C=C1C(=O)OC2CC1C(OC(C)=O)CC1(C)OC1CCC1(C)OC1CCC2(C)O (stereo unspecified)
inactive: dose: 6.25 mg/kg/injection, schedule: Q01DX009 (ip), vehicle: Klucel (hydroxypropylcellulose) (HPC) 102 % of control | [6] 97 % of control | [7] 100 % of control | [4] 92 % of control

C#CCN(C)Cc1ccccc1
inactive: [8] 97 % of control | [9] 97 % of control | [10] 100 % of control
